MIC data for two compounds are collected here from patent US6613747B2, “6-O-carbamoyl ketolide antibacterials” (Ortho-McNeil Pharmaceutical, Inc., priority 2000, dated 2003).

Assay in all cases: MIC, microdilution broth method (NCCLS)
Holding throughout (type): cell-based
In general terms: In broth dilution the organism is exposed to a series of concentrations in liquid medium.

The test system of one assay is E. coli OC2605. The following applies: A: E. coli OC2605, 35° C., 16-20 hours. The essentials: (§1)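 NCCLS M7-A4 broth microdilution using two-fold serial drug dilutions in cation-adjusted Mueller-Hinton broth, with inoculum ~5×10^4 CFU/well. Trays were incubated at 35 °C for 16–20 h, and growth was compared against compound-free controls.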
A further assay relates to S. pneumoniae ATCC49619. The following applies: D: S. pneumoniae ATCC49619, 35° C., 16-20 hours. In short, it runs like this: as §1
The test system of the next assay is H. influenzae ATCC49247. As to conditions: E: H. influenzae ATCC49247, 35° C., 16-20 hours. The essentials: as §1
Another assay deals with E. faecalis ATCC29212. As to conditions: C: E. faecalis ATCC29212, 35° C., 16-20 hours. In short, it runs like this: as §1
Another assay deals with S. aureus ATCC29213. As to conditions: B: S. aureus ATCC29213, 35° C., 16-20 hours. The essentials:
as §1

Converted amounts (≈) assume the structure as drawn.

As for `CC[C@H]1OC(=O)[C@H](C)C(=O)[C@H](C)[C@@H](O[C@@H]2O[C@H](C)C[C@H](N(C)C)[C@H]2O)[C@](C)(OC(=O)NCC#Cc2cnc3ccccc3c2)C[C@@H](C)C(=O)[C@H](C)[C@H]2NC(=O)O[C@@]21C` [Compound 29], the MIC came out at 16 µg/mL (≈ 19.8 µM) in the assay on E. coli OC2605; 0.03 µg/mL (≈ 0.0372 µM) with S. pneumoniae ATCC49619; 2 µg/mL (≈ 2.48 µM) in the assay on H. influenzae ATCC49247; 0.06 µg/mL (≈ 0.0744 µM) in the assay with E. faecalis ATCC29212; 0.5 µg/mL (≈ 0.62 µM) with S. aureus ATCC29213.

For the compound `CCC1OC(=O)C(C)(F)C(=O)C(C)C(OC2OC(C)CC(N(C)C)C2O)C(C)(OC(=O)NCC=Cc2ccc(-c3ncccn3)cc2)CC(C)C(=O)C(C)C2NC(=O)OC12C` (stereo not shown) [Compound 89], the MIC against E. coli OC2605 was 16 µg/mL (≈ 18.7 µM); against S. pneumoniae ATCC49619 it was 0.06 µg/mL (≈ 0.0703 µM); against H. influenzae ATCC49247 it was 8 µg/mL (≈ 9.37 µM); in the assay on E. faecalis ATCC29212, 0.25 µg/mL (≈ 0.293 µM); against S. aureus ATCC29213, 0.5 µg/mL (≈ 0.585 µM).
